Laboratory results reported in patent US20240279205A1, “NOVEL BENZIMIDAZOLE DERIVATIVE” (Carna Biosciences, Inc., priority 2020, published 2024).
Where a name gives a salt, the structure may show the parent alone.

What follows are molecules tested against T1, human STING (hSTING) (Homo sapiens, UniProt Q86WV6) (assay: Inhibition test of intracellular human STING (hSTING) pathway using SEAP reporter cells (HEK-Blue ISG), stimulation with Compound 3). Details: Compound 3 10 nM stimulation, 21 hours.
T1 construct: host or cells: HEK-Blue ISG cells (HEK293-derived SEAP reporter line)
T1 sequence (Q86WV6 whole entry H232R): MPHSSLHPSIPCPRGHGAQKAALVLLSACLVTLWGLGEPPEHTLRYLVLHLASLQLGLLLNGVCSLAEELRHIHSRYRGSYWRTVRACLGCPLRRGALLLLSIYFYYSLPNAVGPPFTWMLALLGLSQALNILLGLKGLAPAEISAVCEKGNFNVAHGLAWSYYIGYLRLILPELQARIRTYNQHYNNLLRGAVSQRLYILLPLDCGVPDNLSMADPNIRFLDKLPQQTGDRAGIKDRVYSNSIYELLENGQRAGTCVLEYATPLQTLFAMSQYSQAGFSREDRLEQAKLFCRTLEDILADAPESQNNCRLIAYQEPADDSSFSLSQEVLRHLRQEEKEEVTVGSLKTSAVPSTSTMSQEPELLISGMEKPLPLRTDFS
Assay type: cell-based
Design: hSTING inhibitory activity: scale not given here
Experimental: Inhibition test of intracellular human STING (hSTING) pathway using reporter cells
Since STING activates the transcription factor IRF3 upon ligand stimulation, the activity of STING can be evaluated by a reporter assay using a secretory alkaline phosphatase (SEAP reporter) integrated downstream of an IRF-inducible promoter.
That is, the hSTING inhibitory activity of the test compound was evaluated using HEK-Blue™MISG cells (manufactured by Invivogen, #hkb-isg-1) incorporating a SEAP reporter. Activation of hSTING was performed by stimulation with the small molecule ligand Compound 3 as described in the literature (Ramanjulu, J. M., et al., Nature. 2018, 564 (7736), 439-443). HEK-Blue™MISG cells were seeded in a 96-well plate and cultured overnight at 37° C. in a 5% CO2 incubator. To each well of this cell culture plate, a test compound solution adjusted to a final concentration of 0.1 to 10 µM of the test compound was added, cultured for 1 hour in a CO2 incubator, and then Compound 3 (final concentration 10 nM) was added and further cultured in a CO2 incubator for 21 hours. After collecting the culture supernatant of each well, the reporter activity was measured by color development reaction with alkaline phosphatase.
The reporter activity of the test compound non-addition and Compound 3 addition group was set to 100%, and the reporter activity of the test compound non-addition and Compound 3 non-addition group was set to 0%. The IC50 value was determined by regression analysis of the inhibitory rate determined from the reporter activity at each compound concentration and the test compound concentration (logarithm).

hSTING inhibitory activity	SMILES
* *	Clc1ccc2[nH]cc(Nc3nc4cc(-c5ccncc5)ccc4[nH]3)c2n1 [Embodiment 96, N-(5-Chloro-1H-pyrrolo[3,2-b]pyridin-3-yl)-5-(pyridin-4-yl)-1H-benzo[d]imidazol-2-amine]
* *	Clc1ccc2[nH]cc(Nc3nc4cc(-c5cccc(CN6CCOCC6)c5)ccc4[nH]3)c2n1 [Embodiment 99, N-(5-Chloro-1H-pyrrolo[3,2-b]pyridin-3-yl)-5-[3-(morpholinomethyl)phenyl]-1H-benzo[d] imidazol-2-amine]
* *	Clc1ccc2[nH]cc(Nc3nc4cc(C5=CCOCC5)ccc4[nH]3)c2n1 [Embodiment 105, N-(5-chloro-1H-pyrrolo[3,2-b]pyridin-3-yl)-5-(3,6-dihydro-2H-pyran-4-yl)-1H-benzo[d] imidazol-2-amine]
* *	ClC(=CC1CC1)c1ccc2[nH]c(Nc3c[nH]c4ccc(Cl)nc34)nc2c1 [Embodiment 126, N-(5-chloro-1H-pyrrolo[3,2-b]pyridin-3-yl)-5-(1-chloro-2-cyclopropylvinyl)-1H-benzo[d] imidazole-2-amine]
* * *	CC=C(Cl)c1ccc2[nH]c(Nc3c[nH]c4ccc(Cl)nc34)nc2c1 [Embodiment 137, N-(5-Chloro-1H-pyrrolo[3,2-b]pyridin-3-yl)-5-(1-chloroprop-1-en-1-yl)-1H-benzo[d]imidazole-2-amine]

Same assay, conditions: Compound 3 10 nM stimulation, 21 hours, read-out: hSTING inhibitory activity

SMILES	IC50 [µM]
Clc1ccc2[nH]cc(Nc3nc4cc(OC5CCOCC5)ccc4[nH]3)c2n1 [Embodiment 142, N-(5-Chloro-1H-pyrrolo[3,2-b]pyridin-3-yl)-5-[(tetrahydro-2H-pyran-4-yl)oxy)-1H-benzo[d] imidazol-2-amine]	≥ 10
COCCOc1cc2nc(Nc3c[nH]c4ccc(Cl)nc34)[nH]c2cc1OCCOC [Embodiment 143, N-(5-Chloro-1H-pyrrolo[3,2-b]pyridin-3-yl)-5,6-bis(2-methoxyethoxy)-1H-benzo[d]imidazol-2-amine]	≥ 10
CN(C)CC#Cc1ccc2[nH]c(Nc3c[nH]c4ccc(Cl)nc34)nc2c1 [Embodiment 146, N-(5-Chloro-1H-pyrrolo[3,2-b]pyridin-3-yl)-5-[3-(dimethylamino)prop-1-yn-1-yl]-1H-benzo[d] Imidazol-2-amine]	≥ 10
Clc1ccc2[nH]cc(Nc3nc4c(-c5cccnc5)cccc4[nH]3)c2n1 [Embodiment 147, N-(5-Chloro-1H-pyrrolo[3,2-b]pyridin-3-yl)-4-(pyridin-3-yl)-1H-benzo[d]imidazol-2-amine]	≥ 10
Clc1ccc2[nH]cc(Nc3nc4c(-c5ccncc5)cccc4[nH]3)c2n1 [Embodiment 148, N-(5-Chloro-1H-pyrrolo[3,2-b]pyridin-3-yl)-4-(pyridin-4-yl)-1H-benzo[d]imidazol-2-amine]	≥ 10
Clc1ccc2[nH]cc(Nc3nc4c(C5CCOCC5)cccc4[nH]3)c2n1 [Embodiment 150, N-(5-chloro-1H-pyrrolo[3,2-b]pyridin-3-yl)-4-(tetrahydro-2H-pyran-4-yl)-1H-benzo[d]imidazole-2-amine]	≥ 10
Cc1ccc2nc(Nc3c[nH]c4ccc(Cl)nc34)n(C)c2c1 [Embodiment 152, N-(5-Chloro-1H-pyrrolo[3,2-b]pyridin-3-yl)-1,6-dimethyl-1H-benzo [d]imidazol-2-amine]	≥ 10
Cn1c(Nc2c[nH]c3ccc(Cl)nc23)nc2cc(C3CCOCC3)ccc21 [Embodiment 153, N-(5-chloro-1H-pyrrolo[3,2-b]pyridin-3-yl)-1-methyl-5-(tetrahydro-2H-pyran-4-yl)-1H-benzo[d] imidazol-2-amine]	≥ 10
Cn1c(Nc2c[nH]c3ccc(Cl)nc23)nc2ccc(C3CCOCC3)cc21 [Embodiment 154, N-(5-chloro-1H-pyrrolo[3,2-b]pyridin-3-yl)-1-methyl-6-(tetrahydro-2H-pyran-4-yl)-1H-benzo[d] imidazol-2-amine]	≥ 10
Cn1c(Nc2c[nH]c3ccc(Cl)nc23)nc2c(F)cccc21 [Embodiment 155, N-(5-Chloro-1H-pyrrolo[3,2-b]pyridin-3-yl)-4-fluoro-1-methyl-1H-benzo[d]imidazol-2-amine]	≥ 10
Cc1ccc2c(c1)nc(Nc1c[nH]c3ccc(Cl)nc13)n2C [Embodiment 156, N-(5-Chloro-1H-pyrrolo[3,2-b]pyridin-3-yl)-1,5-dimethyl-1H-benzo [d]imidazol-2-amine]	≥ 10

Next, values leading:

IC50 [µM]	SMILES
1 to 10	COCCn1c(Nc2c[nH]c3ccc(Br)nc23)nc2cc(Oc3ccccc3)ccc21 [Embodiment 92, N-(5-bromo-1H-pyrrolo[3,2-b]pyridin-3-yl)-1-(2-methoxyethyl)-5-phenoxy-1H-benzo[d]imidazol-2-amine]
1 to 10	Clc1ccc2[nH]cc(Nc3nc4cc(-c5cccnc5)ccc4[nH]3)c2n1 [Embodiment 97, N-(5-Chloro-1H-pyrrolo[3,2-b]pyridin-3-yl)-5-(pyridin-3-yl)-1H-benzo[d]imidazol-2-amine]
≥ 10	Clc1ccc2[nH]cc(Nc3nc4cc(-c5ccc(CN6CCOCC6)cc5)ccc4[nH]3)c2n1 [Embodiment 98, N-(5-Chloro-1H-pyrrolo[3,2-b]pyridin-3-yl)-5-[4-(morpholinomethyl)phenyl]-1H-benzo[d] imidazol-2-amine]
≥ 10	Cn1cc(-c2ccc3[nH]c(Nc4c[nH]c5ccc(Cl)nc45)nc3c2)cn1 [Embodiment 102, N-(5-chloro-1H-pyrrolo[3,2-b]pyridin-3-yl)-5-(1-methyl-1H-pyrazol-4-yl)-1H-benzo[d]imidazole-2-amine]
1 to 10	C[Si](C)(C)C#Cc1ccc2[nH]cc(Nc3nc4cc(Oc5ccccc5)ccc4[nH]3)c2n1 [Embodiment 106, 5-phenoxy-N-{5-[(trimethylsilyl)ethynyl]-1H-pyrrolo[3,2-b]pyridin-3-yl}-1H-benzo[d]imidazol-2-amine]
≥ 10	Cc1cnc2[nH]cc(Nc3nc4cc(Oc5ccccc5)ccc4[nH]3)c2c1 [Embodiment 107, N-(5-methyl-1H-pyrrolo[2,3-b]pyridin-3-yl)-5-phenoxy-1H-benzo[d]imidazol-2-amine]
1 to 10	COCCn1c(Nc2c[nH]c3ccc(Cl)nc23)nc2cc(Cl)c(Cl)cc21 [Embodiment 110, 5,6-dichloro-N-(5-chloro-1H-pyrrolo[3,2-b]pyridin-3-yl)-1-(2-methoxyethyl)-1H-benzo[d] imidazole-2-amine]
≥ 10	N#Cc1cccc2[nH]c(Nc3c[nH]c4ccc(Cl)nc34)nc12 [Embodiment 113, 2-[(5-Chloro-1H-pyrrolo[3,2-b]pyridin-3-yl)amino]-1H-benzo [d]imidazole-4-carbonitrile]
1 to 10	CN1CCC(Oc2ccc3[nH]c(Nc4c[nH]c5ccc(Cl)nc45)nc3c2)CC1 [Embodiment 121, N-(5-Chloro-1H-pyrrolo[3,2-b]pyridin-3-yl)-5-[(1-methylpiveridin-4-yl)oxy]-1H-benzo[d]imidazole-2-amine]
1 to 10	CN(C)C(=O)c1cccc2c(Nc3nc4cc(Oc5ccccc5)ccc4[nH]3)c[nH]c12 [Embodiment 122, N,N-dimethyl-3-[(5-phenoxy-1H-benzo[d]imidazol-2-yl)amino]-1H-indole-7-carboxamide formate]
1 to 10	CC(C)n1c(Nc2c[nH]c3ccc(Cl)nc23)nc2cc(Cl)c(Cl)cc21 [Embodiment 132, 5,6-dichloro-N-(5-chloro-1H-pyrrolo[3,2-b]pyridin-3-yl)-1-isopropyl-1H-benzo[d]imidazol-2-amine]
≥ 10	CN(C)CCn1c(Nc2c[nH]c3ccc(Cl)nc23)nc2ccc(Oc3ccccc3)cc21 [Embodiment 134, N-(5-Chloro-1H-pyrrolo[3,2-b]pyridin-3-yl)-1-[2-(dimethylamino)ethyl]-6-phenoxy-1H-benzo[d] imidazole-2-amine diformate]
≥ 10	Clc1ccc2[nH]cc(Nc3nc4c5c(ccc4[nH]3)OCCO5)c2n1 [Embodiment 135, N-(5-chloro-1H-pyrrolo[3,2-b]pyridin-3-yl)-7,8-dihydro-3H-[1,4] dioxino[2′,3′:3, 4]benzo[1,2-d]imidazol-2-amine]
≥ 10	Cn1c(Nc2c[nH]c3ccc(Cl)nc23)nc2cc(F)c(F)cc21 [Embodiment 138, N-(5-Chloro-1H-pyrrolo[3,2-b]pyridin-3-yl)-5,6-difluoro-1-methyl-1H-benzo[d]imidazol-2-amine]
≥ 10	Clc1ccc2[nH]cc(Nc3nc4cc(OC5COC5)ccc4[nH]3)c2n1 [Embodiment 139, N-(5-Chloro-1H-pyrrolo[3,2-b]pyridin-3-yl)-5-(oxetan-3-yloxy)-1H-benzo[d]imidazol-2-amine]
≥ 10	COCCOc1ccc2[nH]c(Nc3c[nH]c4ccc(Cl)nc34)nc2c1 [Embodiment 140, N-(5-Chloro-1H-pyrrolo[3,2-b]pyridin-3-yl)-5-(2-methoxyethoxy)-1H-benzo[d]imidazol-2-amine]
1 to 10	Clc1ccc2[nH]cc(Nc3nc4cc5c(cc4[nH]3)OCCO5)c2n1 [Embodiment 141, N-(5-chloro-1H-pyrrolo[3,2-b]pyridin-3-yl)-6,7-dihydro-1H-[1,4] dioxino[2′,3′:4, 5]benzo[1,2-d]imidazol-2-amine]
